Measurements: patent US6362166B1, “Antipicornaviral compounds and methods for their use and preparation” (Agouron Pharmaceuticals, Inc., priority 1996, dated 2002)
Where two headings read alike, the source gives them in different places.

What was measured:
[1] = molecular target: T1, Recombinant Rhinovirus 3C protease (RVP) serotype-14 (Human rhinovirus 14, UniProt P03303); assay: Inhibition of Rhinovirus Protease (fluorescence resonance energy transfer assay), serotype 14; assay type: biochemical, human rhinovirus (HRV); settings: for kobs/I: progress curves in enzyme start experiments; for INHIB (percent inhibition): 10 minute preincubation with 50 nM RVP
T1 construct: Recombinant Rhinovirus 3C proteases from serotypes 14, 16, 2 or 89; made in house
Description: Stock solution (50 mM, in DMSO) of various compounds were prepared; dilutions were in the same solvent. […] Assays contained 2% DMSO, 50 mM tris pH 7.6, 1 mM EDTA, a compound at the indicated concentrations, approximately 1 μM substrate, and 50-100 nM protease. […] The kobs/I values were obtained from reactions initiated by addition of enzyme rather than substrate. RVP activity is measured in the fluorescence resonance energy transfer assay. […] In the uncleaved peptide, the EDANS fluorescence was quenched by the proximal DABCYL moeity. When the peptide was cleaved, the quenching was relieved, and activity was measured as an increase in fluorescence signal.
In the above table, all data is RVP serotype-14 unless otherwise noted in parentheses. All strains of human rhinovirus (HRV) were purchased from American Type Culture Collection (ATCC), except for serotype 14, which was produced from the infectious cDNA clone constructed and supplied to us by Dr. Roland Rueckert at the Institute for Molecular Virology, University of Wisconsin, Madison, Wisc. […] The data in the column designated kobs/I was measured from progress curves in enzyme start experiments.

HRV-14 = assay: Antirhinoviral HI-HeLa Cell Culture Assay (Cell Protection Assay, XTT dye reduction); assay type: cell-based, human rhinovirus (HRV) serotype-14
Description: In the Cell Protection Assay, the ability of compounds to protect cells against HRV infection was measured by the XTT dye reduction method. This method is described in Weislow, O. S., R. Kiser, D. L. Fine, J. Bader, R. H. Shoemaker, and M. R. Boyd, J. Natl. Cancer Inst. 1989, 81, 577-586, which is incorporated herein by reference.
(§1) HI-HeLa cells were infected with HRV-14 at a multiplicity of infection (m.o.i.) of 0.13 (virus particles/cell) or mock-infected with medium only. Infected or mock-infected cells were resuspended at 8×10^5 cells per mL and incubated with appropriate concentration of compounds of formulas I and II. Two days later, XTT/PMS was added to test plates and the amount of formazan produced was quantified spectrophotometrically at 450/650 nm. […] The therapeutic index (TI) was calculated by dividing the CC50 by the EC50.
(§2) All strains of human rhinovirus (HRV) for use in this assay were purchased from American Type Culture Collection (ATCC), except for HRV serotype-14, which was produced from the infectious cDNA clone, constructed and supplied to us by Dr. Roland Rueckert at the Institue for Molecular Virology, University of Wisconsin, Madison, Wisc. HRV stocks were propagated, and antiviral assays were perforemd in HI-HeLa cells (ATCC). Cells were grwon in Minimal Essential Medium, available from Life Technologies, with 10% fetal bovine serum.
The compounds were tested against control compounds WIN 51711, WIN 52084, and WIN 54954, all obtained from Sterling-Winthrop Pharmaceuticals, and control compound Pirodavir, obtained from Janssen Pharmaceuticals.

[2] = Cytotoxicity in mock-infected HI-HeLa cells (antirhinoviral assay, XTT); assay type: cell-based; settings: human; mock-infected HI-HeLa cells; two days; XTT; read-out: CC50
Description: as §1, §2

HI-HeLa cells = assay: as above; assay type: cell-based
Description: as §1, §2

[3] = Rhinovirus B, HRV14, 48 h, HI-HeLa cells infected with HRV-14, m.o.i. 0.13, two days, XTT, read-out: EC50
[4] = HI-HeLa cells infected with HRV-14, m.o.i. 0.13, two days, XTT, read-out: EC50
[5] = RVP serotype-14, 10 minute preincubation, substrate start, read-out: INHIB (Ki)

T1 sequence (P03303 1538-1719): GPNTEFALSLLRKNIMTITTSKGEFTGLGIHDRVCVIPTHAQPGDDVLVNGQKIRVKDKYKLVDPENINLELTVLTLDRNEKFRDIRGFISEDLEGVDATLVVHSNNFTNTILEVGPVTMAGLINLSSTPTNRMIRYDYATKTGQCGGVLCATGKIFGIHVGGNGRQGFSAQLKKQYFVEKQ

Compound | kobs/I ([1]; RVP serotype-14) | EC50 (HRV-14; [4]) | CC50 (HI-HeLa cells) | also measured
CC(C)CC(NC(=O)OCc1ccccc1)C(=O)NC(Cc1ccccc1)C(=O)NC(C=Cc1ccccc1C#N)CCC(N)=O (stereo not drawn) [Compound 145] | – | – | – | Ki [1]: 10 to 20 µM; EC50 (HRV-14; [3]): > 320 µM; CC50 at 2 days [2]: > 320 µM
CCOC(=O)/C=C/[C@H](CCC(N)=O)NC(=O)[C@H](Cc1cnc[nH]1)NC(=O)[C@H](CC(C)C)NC(=O)OCc1ccccc1 [Compound 112] | – | – | – | Ki [1]: 13 µM; kinact/KI ([1]; pH 7.6, read-out: kobs/I): 6800 M⁻¹ s⁻¹; EC50 (HRV-14; Rhinovirus B, HRV14, 48 h): 27 µM; CC50 at 2 days [2]: > 320 µM
COc1cccc2[nH]c(C(=O)NC(Cc3ccc(F)cc3)C(=O)NC(/C=C/C(=O)O)CCC(N)=O)cc12 (stereo not drawn) [Compound 45] | – | – | – | EC50 (HRV-14; [3]): > 100 µM; CC50 at 2 days [2]: > 100 µM
CC(C)CC(NC(=O)OCc1ccccc1)C(=O)NC(Cc1ccccc1)C(=O)NC(C=CCOc1ccc(C(F)(F)F)cc1)CCC(N)=O (stereo not drawn) [Compound 77] | – | – | – | EC50 (HRV-14; [3]): > 320 µM; CC50 at 2 days [2]: > 320 µM
CC(=O)OCC=CC(CCC(N)=O)NC(=O)C(Cc1ccccc1)NC(=O)C(CC(C)C)NC(=O)OCc1ccccc1 (stereo not drawn) [Compound 76] | – | – | – | EC50 (HRV-14; [3]): > 320 µM; CC50 at 2 days [2]: > 320 µM
CCOC(=O)/C=C/[C@H](CCC(N)=O)NC(=O)[C@H](Cc1ccccc1)NC(=O)[C@H](CC(C)C)NC(=O)C(C)C [Compound 117] | 18,760 M-1 sec-1 | 1 µM | > 320 µM | –
CCOC(=O)/C=C/[C@H](CCC(N)=O)NC(=O)[C@H](CSC)NC(=O)[C@H](CC(C)C)NC(=O)OCc1ccccc1 [Compound 142] | 2,929 M-1 sec-1 | 8.9 µM | > 320 µM | –
CCOC(=O)/C=C/[C@H](CCC(N)=O)NC(=O)[C@H](Cc1ccccc1)NC(=O)[C@H](CC(C)C)NC(=O)C1CCCC1 [Compound 116] | 23,670 M-1 sec-1 | 0.6 µM | > 320 µM | –
CCOC(=O)/C=C/[C@H](CCC(N)=O)NC(=O)[C@H](Cc1ccccc1)NC(=O)[C@H](CC(C)C)NC(=O)c1ccccc1 [Compound 67] | 9,600 M-1 sec-1 | 5.2 µM | > 320 µM | –
CCOC(=O)/C=C/[C@H](CCC(N)=O)NC(=O)[C@H](Cc1ccc(O)cc1)NC(=O)[C@H](CC(C)C)NC(=O)OCc1ccccc1 [Compound 53] | 11,320 M-1 sec-1 | 5.3 µM | > 320 µM | –
CC(C)C[C@H](NC(=O)OCc1ccccc1)C(=O)N[C@@H](Cc1ccccc1)C(=O)N[C@H](/C=C/C(=O)O)CCC(N)=O [Compound 15, 3-(CBZ-L-Leu-L-Phe-L-Gln)-E-Propenoic Acid] | 27 M⁻¹ s⁻¹ | > 100 µM | > 100 µM | INHIB (percent inhibition) ([1]; RVP serotype-14): 55(50) percent
CCOC(=O)/C=C/[C@H](CCC(N)=O)NC(=O)[C@H](Cc1ccccc1)NC(=O)[C@H](CC(C)C)NC(=O)c1ccc(C(=O)NC)cc1 [Compound 129] | 230,000 M-1 sec-1 | > 320 µM | > 320 µM | –
CCOC(=O)/C=C/[C@H](CCC(N)=O)NC(=O)[C@H](Cc1ccc(F)cc1)NC(=O)[C@@H](NC(=O)SC1CCCC1)C(C)(C)C [Compound 176, Ethyl-3-[Cyclopentylthiocarbonyl-L-α-(t-Butyl-Gly)-L-(4-F-Phe)-L-Gln]-E-Propenoate] | 240,000 M-1 sec-1 | 0.14 µM | > 100 µM | Ki [1, 5]: 0.48 µM
CCOC(=O)/C=C/[C@H](CCC(N)=O)NC(=O)[C@H](CSCC)NC(=O)[C@H](CC(C)C)NC(=O)OCc1ccccc1 [Compound 143] | 2,963 M-1 sec-1 | 10 µM | > 320 µM | –
CCCS(=O)(=O)N[C@@H](Cc1ccccc1)C(=O)N[C@H](/C=C/C(=O)OCC)CCC(N)=O [Compound 31, Ethyl-3-[N-(Propylsulfonyl)-L-Phe-L-Gln]-E-Propenoate] | 21 M⁻¹ s⁻¹ | 50.1 µM | > 100 µM | INHIB (percent inhibition) ([1]; RVP serotype-14, 10 μM compound): 25(10) percent
CC(C)C[C@H](NC(=O)OCc1ccccc1)C(=O)N[C@@H](Cc1ccccc1)C(=O)N[C@H](/C=C/C(=O)N(C)c1ccccc1)CCC(N)=O [Compound 60] | 575 M⁻¹ s⁻¹ | 158 µM | > 320 µM | Ki [1, 5]: 5 µM
CC(C)C[C@H](NC(=O)OCc1ccccc1)C(=O)N[C@@H](Cc1ccccc1)C(=O)N[C@H](/C=C/C(=O)C(C)(C)C)CCC(N)=O [Compound 52] | 15,000 M-1 sec-1 | 1.7 µM | 5.6 µM | –
CCOC(=O)/C=C/[C@H](CCC(N)=O)NC(=O)[C@H](Cc1ccc(F)cc1)NC(=O)[C@@H](NC(=O)SC1CCCC1)C(C)(C)Sc1ccc([N+](=O)[O-])cc1 [Compound 185] | 600,000 M-1 sec-1 | 0.5 µM | > 100 µM | –
CCOC(=O)/C(C)=C/[C@H](CCC(N)=O)NC(=O)[C@H](Cc1ccc(F)cc1)NC(=O)[C@@H](NC(=O)SC1CCCC1)C(C)(C)C [Compound 177, Ethyl-2-Methyl-3-[Cyclopentylthiocarbonyl-L-α-(t-Butyl-Gly)-L-(4-F-Phe)-L-Gln]-E-Propenoate] | 80,300 M-1 sec-1 | 0.5 µM | > 100 µM | –
CC(C)C[C@H](NC(=O)OCc1ccccc1)C(=O)N[C@@H](Cc1ccccc1)C(=O)N[C@H](/C=C/C(=O)n1cccc1)CCC(N)=O [Compound 66] | 400,000 M-1 sec-1 | 1.4 µM | 6.3 µM | –
CCOC(=O)/C=C/C(CCC(N)=O)NC(=O)C(Cc1ccc(Cl)cc1)NC(=O)c1cc2c(OC)cccc2n1C(c1ccccc1)(c1ccccc1)c1ccccc1 [Compound 29, Ethyl-3-[N-(1-Tr-4-Methoxyindole-2-Carbonyl)-L-(4-Cl-Phe)-L-Gln]-E-Propenoate] | – | – | – | EC50 (HRV-14; [3]): 27 µM; CC50 at 2 days [2]: 500 µM
CCOC(=O)/C(C)=C/[C@H](CCC(N)=O)NC(=O)[C@H](Cc1ccccc1)NC(=O)[C@H](CC(C)C)NC(=O)OCc1ccccc1 [Compound 82] | 7,300 M-1 sec-1 | 3 µM | > 320 µM | Ki [1, 5]: 26 µM
CC(C)C[C@H](NC(=O)OCc1ccccc1)C(=O)N[C@@H](Cc1ccccc1)C(=O)N[C@H](/C=C/C(=O)c1ccc2c(c1)OCO2)CCC(N)=O [Compound 46] | 120,000 M-1 sec-1 | 3.2 µM | 45 µM | –
CCOC(=O)/C=C/[C@H](CNC(N)=O)NC(=O)[C@H](Cc1ccccc1)NC(=O)[C@H](CC(C)C)NC(=O)OCc1ccccc1 [Compound 16, Ethyl-3-[CBZ-L-Leu-L-Phe-L-(N-carbamyl-amino)-Ala]-E-Propenoate] | 3,500 M-1 sec-1 | 32 µM | > 100 µM | INHIB (percent inhibition) ([1]; RVP serotype-14, […] compound): 40(0.25) percent
CCOC(=O)/C=C/[C@H](CCC(N)=O)NC(=O)[C@H](Cc1ccc(COC)cc1)NC(=O)[C@H](CC(C)C)NC(=O)OCc1ccccc1 [Compound 140] | 7,122 M-1 sec-1 | 39 µM | > 320 µM | –
CCOC(=O)/C=C/[C@H](CCC(N)=O)NC(=O)[C@H](Cc1ccccc1)NC(=O)[C@H](CC(C)C)NC(=O)SC1CCCC1 [Compound 182] | 114,360 M-1 sec-1 | 0.18 µM | > 100 µM | –
CCOC(=O)/C=C/[C@H](CCC(N)=O)NC(=O)[C@H](Cc1ccccc1)NC(=O)[C@H](CC(C)C)NC(=O)OC [Compound 110] | 9,072 M-1 sec-1 | 1.3 µM | > 320 µM | –
CC(C)C[C@H](NC(=O)OCc1ccccc1)C(=O)N[C@@H](Cc1ccccc1)C(=O)N[C@H](/C=C/C(=O)c1ccc(C#N)cc1)CCC(N)=O [Compound 80] | 200,000 M-1 sec-1 | 50 µM | – | CC50 (HI-HeLa cells; mock-infected HI-HeLa cells, two days, XTT, read-out: CC50): > 320 µM
